US20030162803A1, “Anhydrovinblastine for the treatment of cancer” (priority 1997, published 2003)

What was measured:
SK0V3 cells = assay: Cytotoxicity assay, SKOV3 (FIG. 8); type: cell-based; details: 3 day incubation
Method: The IC50s for the SK0V3 and C-4 cells were 4.0 μM and 0.02 μM respectively. Both cell lines were obtained from the ATCC and grown using standard growth techniques and medium as described above. The IC50s were determined through standard cytoxicity assays described above, with each well containing approximately 10^4 cells.

P388 tumors = assay: Murine P388 model in BDF1 mice; type: in vivo
Method: Antitumor studies on mice focussed, in one case, on the P388 leukaemia model. […] This is an ascitic tumor model that was generated by intraperitoneal inoculation of 1×10^6 P388 cells (derived from culture, with an original cell line obtained from the NCI tumor repository) in BDF1 mice (Charles Rivers). One day after tumor cell inoculation, mice were treated with a single intravenous injection of drug. Animal weight was monitored daily and tumor progression was measured as an increase in animal weight and through estimation of survival time. Therapy was described by a decrease in tumor progression and an increase in survival time relative to an untreated control group. Initial studies established the maximum therapeutic dose for AHVB. Subsequently comparative studies with vincristine and Navelbine™ were initiated where animals were treated with each drug at the maximum therapeutic dose.
The in vivo anti-tumor activity of AHVB was compared to that of vincristine, Navelbine™ in the BDF1-murine P388 model in the procedure as follows. P388 cells were derived from the ascities of previously injected female BDF1 mice (19-21 grams) P388 cells, from the NCI tumor repository were inoculated directly into mice. The cells arrive from NCI frozen in 1 ml aliquots. These samples were thawed rapidly at 37° C. and subsequently injected (within 1 hour) intraperitoneally into two mice, 0.5 ml per mouse. One week (7 days) after inoculation, the tumor cells were harvested by removing peritoneal fluid using a sterile syringe with a 22 gauge needle. The cells, pooled from two animals, were counted using a hemocytometer, diluted (RPMI media) to a concentration of 2×10^6 cells/ml and 0.5 ml was then re-injected into each of two BDF1 mice. Remaining cells were washed and placed into a DMSO containing media and frozen (in freezer packs that cool at a defined rate). This process was repeated weekly over a […]. Cells used for anti-tumor studies were collected from the third passage to the 20th passage. After the 20th passage the cells were no longer used for experimental studies. Newly established cells were derived from the frozen cells prepared as described above.
Groups (five mice per group) of female BDF1 mice (Charles Rivers, Canada) were injected (intraperitoneal) with 10^6 P388 cells (as described above). One day after tumor cell inoculation, the mice were given a bolus intravenous injection of indicated drug via the lateral tail vein. Control groups were injected with saline. Free drug samples were prepared on the day of injection such that the final concentrations were sufficient to deliver the indicated drug dose in a volume of 200 μl. All dilutions were made using 0.9% Sodium Chloride Injection USP. The mice were briefly (less than 30 sec.) restrained during intravenous injections. Dilation of the vein was achieved by holding the animals under a heat lamp for a period of between five and ten minutes. Following administration of the test articles, animals were weighed daily for fourteen days and monitored for signs of stress twice daily for the first 14 days (once daily on weekends) and once daily for the remainder of the study. Severely distressed animals were terminated by CO2 asphyxiation and the time of death was recorded to occur on the following day. Although complete dose titrations were completed for each drug, the data shown in FIG. 6 is that obtained after administration of the free drugs at their maximum tolerated dose. This was 3, 40 and 40 mg/kg for vincristine, Navelbine™ and AHVB, respectively.
After treating mice (bearing the P388 tumor) with a single dose of the indicated drug, animals were examined twice daily for the first 14 days (once daily on weekends). Weight gain in the control is an indication of tumor progression.
The studies were conducted as described for FIG. 6. […]

[1] = single agent; cited from earlier work

Question: Which IC50 (SK0V3 cells) does the source give for `CCC1=C[C@H]2CN(CCc3c([nH]c4ccccc34)[C@@](C(=O)OC)(c3cc4c(cc3OC)N(C)[C@H]3[C@@](O)(C(=O)OC)[C@H](OC(C)=O)[C@]5(CC)C=CCN6CC[C@]43[C@@H]65)C2)C1` [AHVB, 3′,4′-anhydrovinblastine] here?
Answer: The IC50 was 4 µM.

Question: What about the “onset of acute toxic reaction at maximum tolerated dose” value (P388 tumors; 40 mg/kg IV) of the same compound?
Answer: Its value is ≤ 1 h.

Question: And the “anti-tumor activity, number of long term survivors (>60 days)” value (P388 tumors; 40 mg/kg single IV injection vs vincristine 3 mg/kg, FIG. 6)?
Answer: The value was “significantly better than that observed for vincristine”.

Question: What about the “times less toxic (on a weight basis) than vincristine” value (P388 tumors; mouse, in vivo) of the same compound?
Answer: Its value is “approximately 10 times”.

Question: What about the “toxicity (vinca alkaloid induced weight loss)” value (P388 tumors; single IV injection at maximum tolerated dose, 40 mg/kg, FIG. 4) of the same compound?
Answer: Its value is “least toxic of the three drugs evaluated”.

Question: And the maximum tolerated dose (P388 tumors; single bolus intravenous injection, BDF1 mice bearing P388 tumors)?
Answer: The maximum tolerated dose was 40 mg/kg.

Question: Which “mild to moderate peripheral neuropathy (paresthesia and hypesthesia), frequency” value [1] does the source give for `CCC1=C[C@@H]2CN(C1)Cc1c([nH]c3ccccc13)[C@@](C(=O)OC)(c1cc3c(cc1OC)N(C)[C@H]1[C@@](O)(C(=O)OC)[C@H](OC(C)=O)[C@]4(CC)C=CCN5CC[C@]31[C@@H]54)C2` [Navelbine, 3′,4′-didehydro-4′-deoxy-C′-norvincaleukoblastine-di-L-tartrate] here?
Answer: The value was 10 % of patients.
